Measurements taken from patent US20210393742A1, “LONG-ACTING INTERLEUKIN-15 RECEPTOR AGONIST IN COMBINATION WITH ANOTHER PHARMACOLOGICALLY ACTIVE AGENT” (Nektar Therapeutics, priority 2018, published 2021).

Tests used:
Daudi B cell lymphoma [1] = assay: Survival in Daudi B cell lymphoma xenograft model, combination with daratumumab (Example 3); format: in vivo, mice; settings: post tumor injection; daratumumab 0.5 mg/kg IP day 14; agonist 0.3 mg/kg SC days 14, 21, 28
Description: SCID mice (N=8/group) inoculated intravenously with 1×10^7 Daudi B cell lymphoma cells were treated with a single dose of daratumumab (0.5 mg/kg, IP, 14 days after inoculation) and a total of three doses of mono(methoxyPEG-N-butanamide)40 kD interleukin-15 (0.3 mg/kg, SC, administered 14, 21 and 28 days after tumor inoculation). Also evaluated were untreated mice as a control and mice treated with daratumumab as a single agent therapy. Survival of tumor-inoculated mice was measured by body condition scoring as endpoint marker. Results are provided graphically in FIG. 5.

NK cells [2] = assay: NKG2A and NKG2D surface expression on bone marrow NK cells of Daudi lymphoma bearing mice (Example 4); format: in vivo; settings: bone marrow day 24; Conjugate 1 0.3 mg/kg SC days 14 and 21; antibody 0.5 mg/kg IP day 14
Description: (§1) Balb/c mice bearing Daudi B cell lymphoma tumors in the bone marrow (n=6/group) were intraperitoneally administered a single 0.5 mg/kg dose of the human CD38 protein targeting clinical antibody daratumumab (DARZALEX®, Janssen Biotech) or a nonspecific control antibody with a matching isotype on day 14 after Daudi cell intravenous inoculation. Additional groups were administered mono(methoxyPEG-N-butanamide)40 kD interleukin-15 (Conjugate 1) subcutaneously at a dose of 0.3 mg/kg as a single agent on days 14 and 21 after Daudi cell inoculation, or administered a combination treatment of Conjugate 1 administered subcutaneously at doses of 0.03 mg/kg or 0.3 mg/kg on days 14 and 21 after Daudi cell inoculation and daratumumab administered intraperitoneally at a dose of 0.5 mg/kg on day 14 after Daudi cell inoculation.
Three days following the second Conjugate 1 administration (day 24 after Daudi inoculation), bone marrow was collected and the NK cell fraction was measured by flow cytometry in total bone marrow. Expression of the cell surface activating receptor NKG2D and the inhibitory checkpoint receptor NKG2A are shown in FIGS. 7A and 7B, respectively.

NK cells [3] = assay: CD16 surface expression on bone marrow NK cells of Daudi lymphoma bearing mice (Example 10); format: in vivo; settings: bone marrow day 24
Description: as §1, with “were treated with (i) mono(mPEG-N-butanamide)40” for “were administered mono(methoxyPEG-N-butanamide)40”, “1) administered” for “1)”, “or (ii)” for “or administered”
Three days following the second Conjugate 1 administration (day 24 after Daudi inoculation), bone marrow was collected and the NK cell fraction was measured by flow cytometry in total bone marrow. The fraction of NK cells expressing the cell surface CD16 receptor that is known to mediate antibody dependent cellular cytotoxicity mechanism in the presence of tumor targeting antibodies, and the change in CD16 expression per cell basis on NK cells are shown in FIGS. 13A and 13B, respectively.

NK cells [4] = assay: Granzyme B expression per cell in bone marrow NK cells of Daudi lymphoma bearing mice (Example 11); format: in vivo; settings: bone marrow day 24; Conjugate 1 0.3 mg/kg; antibody 0.5 mg/kg
Description: as §1, with “daratumumab (DARZALEX®),” for “daratumumab (DARZALEX®,”, “were treated with (i) mono(mPEG-N-butanamide)40” for “were administered mono(methoxyPEG-N-butanamide)40”, “1) administered” for “1)”, “or (ii)” for “or administered”
Three days following the second Conjugate 1 administration (day 24 after Daudi inoculation), bone marrow was collected and the NK cell fraction was measured by flow cytometry in total bone marrow.

Daudi B cell lymphoma [5] = assay: Daudi cell counts in bone marrow, low and high doses (Example 14); format: in vivo, mice; settings: day 24, single agent
Description: SCID mice (N=6/group) were intravenously inoculated with 10 million Daudi cells on Day 0 and treated with a single dose of a lower or higher dose of daratumumab (0.05 mg/kg or 5 mg/kg IP, 14 days following Daudi cell inoculation) and two doses of either lower or higher dose mono(methoxyPEG-N-butanamide)interleukin-15 (compound 1) (0.03 mg/kg or 0.6 mg/kg intravenously, one dose at each of 14 and 21 days after inoculation). Mice were also treated with the single agent therapies: daratumumab (0.05 mg/kg or 5 mg/kg IP, 14 days following Daudi cell inoculation) or two doses of mono(methoxyPEG-N-butanamide)40 kD interleukin-15 (compound 1) (0.03 mg/kg or 0.6 mg/kg intravenously, 14 and 21 days after inoculation). Daudi cell numbers in the bone marrow were assessed three days following the second dose of mono(methoxyPEG-N-butanamide)40 kD interleukin-15 (day 24) by flow cytometry as shown in FIGS. 17A and 17B.

[6] = test system: STAT5 phosphorylation in KHYG-1 cells; assay: Phosphorylation of STAT5 in KHYG-1 cells (Example 7); format: cell-based, human; settings: 10 minutes
Description: KHYG-1 cells were cultured in RPMI-1640 medium supplemented with 20% FBS, 2 mM L-glutamine, and 20 ng/mL IL-2 (Complete growth medium) in a humidified incubator at 37° C. and 5% CO2.
One day prior to treatment with test compounds, cells were seeded at a density of 500,000 viable cells/ml in Complete growth medium and incubated overnight under normal growth conditions. On the day of the assay, KHYG-1 cells were washed 3 times with DPBS, resuspended in assay medium (RPMI-1640 medium supplemented with 20% FBS, 2 mM L-glutamine), and incubated for 4-5 hours at 37° C., 5% CO2. Cells were adjusted to the appropriate density (8×10^5 cells/mL) in assay medium and 50,000 cells/well were aliquoted into wells of a 96-well plate (View-Plate 96, Perkin-Elmer).
KHYG-1 cells were stimulated with IL-15 or a long-acting IL-15 receptor agonist (mono(mPEG-butanamide)IL-15) followed by incubation at 37° C., 5% CO2 for 10 minutes. Treated cells were lysed on ice.
Detection of phospho-STAT5 protein levels in cell lysates was performed using the Phospho(Tyr694)/Total STAT5a,b Assay Whole Cell Lysate kit (MSD product #K15163D). Relative light unit (RLU) signal corresponding to phosphor-STAT5 was collected using a Sector® Imager 2400 plate reader (MSD) with the results provided in FIG. 10A.

CD56+ human NK cells = assay: Dose response of human NK cell proliferation in CFSE labeled PBMCs (Example 8); format: cell-based; settings: 5 days
Description: Human peripheral blood mononuclear cell (PBMCs) labeled with a CFSE preparation were incubated for 5 days in vitro in the presence of increasing doses of rhIL-15 (dose range 1 ng/ml-100 ng/ml, 5 point, 3 fold dilutions) or a long-acting IL-15 receptor agonist (mono(mPEG-butanamide)IL-15) (dose range 10 ng/ml-1000 ng/ml, 5 point, 3 fold dilutions). After the incubation period, cell proliferation as indicated by the decrease of CFSE in the cells that had undergone cell doublings was measured with flow cytometry measuring CFSE levels in CD56+ human NK cells within the PBMCs preparation.

[7] = test system: STAT5 phosphorylation in lymphocytes; assay: STAT5 phosphorylation in lymphocytes at time points after administration in mice, flow cytometry; format: in vivo
Source text: Conventional approaches, such as those involving radiolabeling a compound, administering the compound in vivo, and determining its clearance, can be used to assess whether a compound proposed to be a long-acting, IL-15 receptor agonist is “long-acting” (i.e., has a clearance that is longer than that of IL-15 administered in the same in vivo system). For the purposes herein, the long-acting nature of a long-acting IL-15 receptor agonist may be, and is typically determined using flow cytometry to measure STAT5 phosphorylation in lymphocytes at various time points after administration of the agonist to be evaluated in mice. As a reference, the signal is lost by around 24 hours with IL-15, but is sustained for a period greater than that for a long-acting IL-15 agonist.

Daudi B cell lymphoma [8] = assay: Survival in Daudi B cell lymphoma xenograft model, combination with rituximab (Example 1); format: in vivo, mice; settings: after about 30 days; rituximab 40 mg/kg IP, days 14 and 17
Description: At day 0, SCID mice were intravenously injected with 1×10^7 Daudi cells. The mice were divided into four groups. On days 14 and 17 post-Daudi cell injection, the groups were treated by injection as follows: Group 1: isotype control antibody, Group 2: 40 mg/kg IP rituximab, Group 3: 0.3 mg/kg mono(methoxyPEG-N-butanamide)40 kD interleukin-15 (a long-acting IL-15 receptor agonist), Group 4: 40 mg/kg IP rituximab and 0.3 mg/kg SC mono(methoxyPEG-N-butanamide)40 kD interleukin-15 (combination).
The survival rate was determined by measuring the onset of hind limb paralysis as a surrogate parameter.

[9] = Conjugate 1 0.3 mg/kg, antibody 0.5 mg/kg

For “Daratumumab: anti-CD38 monoclonal antibody (DARZALEX®, Janssen Biotech) [reference compound]”, the median survival (Daudi B cell lymphoma [1]) was 28.5 days, the “% NK cells expressing NKG2A (mean, n = 6)” value (NK cells [2]) was 54.83% and the “% NK cells expressing NKG2D (mean, n = 6)” value (NK cells [2]) was 10.22%. For the same substance, the “Fraction of NK cell expressing cell surface CD16 (mean value)” value (NK cells [3]; Conjugate 1 0.3 mg/kg SC days 14 and 21, antibody 0.5 mg/kg IP day 14) was 81%, the “CD16 mean fluorescence intensity (MFI mean value)” value (NK cells [3]; [9]) was 448 and the “Relative CD16 expression compared to untreated condition” value (NK cells [3]; [9]) was “No increase (1x)”. The “Granzyme B mean fluorescence intensity (MFI mean value)” value (NK cells [4]) was 272, the “Relative Granzyme B expression compared to untreated condition” value (NK cells [4]) was “No increase (0.7x)” and the “intra-bone marrow tumor cells depleted” value (Daudi B cell lymphoma [5]; high dose (daratumumab 5 mg/kg; compound 1 0.6 mg/kg)) was 58%. For the same substance, the “intra-bone marrow tumor cells depleted” value (Daudi B cell lymphoma [5]; low dose (daratumumab 0.05 mg/kg; compound 1 0.03 mg/kg)) was 30%.
For “rhIL-15: recombinant human interleukin-15 (SEQ ID NO: 1), unconjugated comparator [reference compound]”, the “phosphorylation of STAT5” value [6] was “dose-dependent phosphorylation of STAT5”, the “EC50 (ng/ml)-% proliferation” value (CD56+ human NK cells) was 2.28 ng/mL and the Emax-% proliferation (CD56+ human NK cells) was 69.6%. For the same substance, the “time by which the STAT5 phosphorylation signal is lost” value [7] was “around 24 hours”.
Substance “rituximab: anti-CD20 monoclonal antibody (Rituxan®, Genentech) [reference compound]” has a survival (Daudi B cell lymphoma [8]) of 0%.
